In data set [1] the test system is SMN2 minigene mRNA (SMN2-A minigene) in HEK293H cells. Put plainly: SMN2 minigene mRNA splicing RT-qPCR assay in cultured cells. Particulars: Homo sapiens, HEK293-H; concentration increasing full length SMN2 mRNA 1.5-fold relative to vehicle-treated cells; HEK293H cells with SMN2-A minigene, 24 hours, 7-point concentration data; read-out: EC1.5x for production of full length SMN2 mRNA. It counts as cell-based, human. In outline: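 Stable SMN2-A minigene HEK293H; cpd 7-pt 3.16-fold series, 200× in DMSO, 24 h, 37 °C, n=2. Lysates → multiplex RT-qPCR (minigene FL + GAPDH), efficiency-corrected ΔΔCt vs vehicle. EC1.5× = 1.5-fold FL mRNA gain.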

Data set [2] has as its system Smn protein in SMA patient fibroblast cells (GM03813). Briefly: Smn protein assay in cultured cells (SMN HTRF). It counts as cell-based, human. Particulars: SMA patient fibroblast cells, 48 hours; for maximum fold (Fold) increase of Smn protein: 7-point concentration data, fold relative to vehicle control; for EC1.5x for Smn protein expression: 7-point concentration curve, SMN HTRF, concentration producing 1.5 times Smn protein vs DMSO vehicle control. The gist of the method:
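Fibroblasts, SMA patient; 5,000 cells/well; 7-pt curve, 3.16-fold serial dilution; 48 h, 37 °C, 5% CO2; RIPA lysis 1 h RT; anti-SMN d2 + kryptate overnight RT; HTRF 665/620 nm; fold vs DMSO; EC1.5×, max fold.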
On the technique in general: TR-FRET usually uses a lanthanide donor and a delayed reading to cut background.

By melting point is commonly meant the temperature of the solid-liquid transition.

For the compound `COc1cc(-c2cc(=O)n3cc(N4CCN[C@@H](C)C4)ccc3n2)ccc1F` [Compound 215, 2-(4-fluoro-3-methoxyphenyl)-7-[(3S)-3-methylpiperazin-1-yl]-4H-pyrido[1,2-a]pyrimidin-4-one], the melting point lay in the range of 130 to 135 °C. In data set [1], the EC (1.5-fold increase) fell in the range of 0.3 to 1 µM. In data set [2], the “maximum fold (Fold) increase of Smn protein” value (shortened to “maximum fold (Fold) increase”) was “*** (a fold increase between >1.35 and ≤1.5 is indicated by three stars (***))”.
As to `CCc1cc(-c2cc(=O)n3cc(C4CCN(CCO)CC4)ccc3n2)cn2cc(C)nc12` [Compound 699, 2-(8-ethyl-2-methylimidazo[1,2-a]pyridin-6-yl)-7-[1-(2-hydroxyethyl)piperidin-4-yl]-4H-pyrido[1,2-a]pyrimidin-4-one], the melting point was in the range of 244 to 247 °C. Also, the EC (1.5-fold increase) in data set [1] is below 0.1 µM. In data set [2], the “EC1.5x for Smn protein expression” value is on record as “**** (an EC1.5x≤0.3 μM is indicated by four stars (****))” and the “maximum fold (Fold) increase” value is reported as “***** (a fold increase >1.65 is indicated by five stars (*****))”.
For `CCc1nc(C)cn2cc(-c3cc(=O)n4cc(N5CCCNCC5)ccc4n3)cc12` [Compound 749, 7-(1,4-diazepan-1-yl)-2-(1-ethyl-3-methylpyrrolo[1,2-a]pyrazin-7-yl)-4H-pyrido[1,2-a]pyrimidin-4-one], the melting point lay in the range of 200 to 202 °C. In data set [1], the EC (1.5-fold increase) is below 0.1 µM. For the same compound, in data set [2], the “EC1.5x for Smn protein expression” value is “**** (an EC1.5x≤0.3 μM is indicated by four stars (****))” and the “maximum fold (Fold) increase” value is “***** (a fold increase >1.65 is indicated by five stars (*****))”.
Turning to `CCc1cc(N2CCN[C@H](C)C2)cn2c(=O)cc(-c3ccc(OC)c(OC)c3)nc12` [Compound 447, 2-(3,4-dimethoxyphenyl)-9-ethyl-7-[(3R)-3-methylpiperazin-1-yl]-4H-pyrido[1,2-a]pyrimidin-4-one], the melting point was in the range of 140 to 147 °C. For the same compound, the EC (1.5-fold increase) in data set [1] is 0.1 to 0.3 µM. In addition, in data set [2], the “maximum fold (Fold) increase” value was “* (A maximum fold increase of ≤1.2 is indicated by one star (*))”.
In turn, `CCN1CCC(c2ccc3nc(-c4ccc5nn(C)cc5c4)cc(=O)n3n2)CC1` [Compound 523, 7-(1-ethylpiperidin-4-yl)-2-(2-methyl-2H-indazol-5-yl)-4H-pyrimido[1,2-b]pyridazin-4-one] yielded a melting point of 253 to 255 °C. Further, in data set [1], the EC (1.5-fold increase) was below 0.1 µM. In addition, in data set [2], the “EC1.5x for Smn protein expression” value is on record as “**** (an EC1.5x≤0.3 μM is indicated by four stars (****))” and the “maximum fold (Fold) increase” value is “***** (a fold increase >1.65 is indicated by five stars (*****))”.
As to `Cc1cn2nc(-c3cc(=O)n4cc(N5CCC(N(C)C)CC5)ccc4n3)cc2c(C)n1` [Compound 339, 7-[4-(dimethylamino)piperidin-1-yl]-2-(4,6-dimethylpyrazolo[1,5-a]pyrazin-2-yl)-4H-pyrido[1,2-a]pyrimidin-4-one], the melting point was 208 to 210 °C. The EC (1.5-fold increase) in data set [1] is below 0.1 µM. In data set [2], the “EC1.5x for Smn protein expression” value is recorded as “**** (an EC1.5x≤0.3 μM is indicated by four stars (****))” and the “maximum fold (Fold) increase” value is on record as “***** (a fold increase >1.65 is indicated by five stars (*****))”.
On to `CN1CCC(c2ccc3nc(-c4ccc5c(cnn5C)c4)cc(=O)n3c2)CC1` [Compound 475, 2-(1-methyl-1H-indazol-5-yl)-7-(1-methylpiperidin-4-yl)-4H-pyrido[1,2-a]pyrimidin-4-one], for which the melting point lay within 216 to 218 °C. Also, in data set [1], the EC (1.5-fold increase) is 0.3 to 1 µM. Also, in data set [2], the “EC1.5x for Smn protein expression” value is “** (an EC1.5× between >1 μM and ≤3 μM is indicated by two stars (**))”; the “maximum fold (Fold) increase” value was “*** (a fold increase between >1.35 and ≤1.5 is indicated by three stars (***))”.
`COc1ccc(-c2cc(=O)n3cc(C4=CCNCC4)cc(C)c3n2)cc1OC` [Compound 247, 2-(3,4-dimethoxyphenyl)-9-methyl-7-(1,2,3,6-tetrahydropyridin-4-yl)-4H-pyrido[1,2-a]pyrimidin-4-one]: the melting point lay in the range of 186 to 191 °C. In data set [1], the EC (1.5-fold increase) was below 0.1 µM. Further, in data set [2], the “EC1.5x for Smn protein expression” value is “**** (an EC1.5x≤0.3 μM is indicated by four stars (****))” and the “maximum fold (Fold) increase” value was “***** (a fold increase >1.65 is indicated by five stars (*****))”.
Compound `Cc1cc2cc(-c3cc(=O)n4cc(N5C[C@@H](C)N[C@@H](C)C5)ccc4n3)oc2c(C)n1` [Compound 527, 2-(5,7-dimethylfuro[2,3-c]pyridin-2-yl)-7-[(3R,5S)-3,5-dimethylpiperazin-1-yl]-4H-pyrido[1,2-a]pyrimidin-4-one] registered a melting point of 260 to 262 °C. For the same compound, the EC (1.5-fold increase) in data set [1] is below 0.1 µM. In data set [2], the “EC1.5x for Smn protein expression” value is given as “**** (an EC1.5x≤0.3 μM is indicated by four stars (****))” and the “maximum fold (Fold) increase” value is reported as “***** (a fold increase >1.65 is indicated by five stars (*****))”.
The compound `Cc1cn2cc(-c3cc(=O)n4cc(N5CCC(N6CCCC6)CC5)ccc4n3)ccc2n1` [Compound 437, 2-(2-methylimidazo[1,2-a]pyridin-6-yl)-7-[4-(pyrrolidin-1-yl)piperidin-1-yl]-4H-pyrido[1,2-a]pyrimidin-4-one] had a melting point of 230 to 232 °C. For the same compound, the EC (1.5-fold increase) in data set [1] was in the range of 0.1 to 0.3 µM. Also, in data set [2], the “EC1.5x for Smn protein expression” value is “*** (an EC1.5× between >0.3 μM and ≤1 μM is indicated by three stars (***))”; the “maximum fold (Fold) increase” value is “**** (a fold increase between >1.5 and ≤1.65 is indicated by four stars (****))”.
The compound `CCN1CC=C(c2ccc3nc(-c4ccc5nc(C)oc5c4)cc(=O)n3c2)CC1` [Compound 304, 7-(1-ethyl-1,2,3,6-tetrahydropyridin-4-yl)-2-(2-methyl-1,3-benzoxazol-6-yl)-4H-pyrido[1,2-a]pyrimidin-4-one] registered a melting point of 128 to 131 °C. The EC (1.5-fold increase) in data set [1] is below 0.1 µM. For the same compound, in data set [2], the “EC1.5x for Smn protein expression” value is reported as “**** (an EC1.5x≤0.3 μM is indicated by four stars (****))” and the “maximum fold (Fold) increase” value is given as “***** (a fold increase >1.65 is indicated by five stars (*****))”.
Compound `Cc1cn2nc(-c3cc(=O)n4cc(N5CCN[C@@H](C)C5)ccc4n3)cc2cn1` [Compound 441, 7-[(3S)-3-methylpiperazin-1-yl]-2-(6-methylpyrazolo[1,5-a]pyrazin-2-yl)-4H-pyrido[1,2-a]pyrimidin-4-one] came in with a melting point of 235 to 240 °C. In addition, the EC (1.5-fold increase) in data set [1] is below 0.1 µM. Further, in data set [2], the “EC1.5x for Smn protein expression” value was “**** (an EC1.5x≤0.3 μM is indicated by four stars (****))” and the “maximum fold (Fold) increase” value was “***** (a fold increase >1.65 is indicated by five stars (*****))”.
In the case of `Cc1cn2cc(-c3cc(=O)n4cc(C5CCN(C(C)C)CC5)ncc4n3)ccc2n1` [Compound 627, 2-(2-methylimidazo[1,2-a]pyridin-6-yl)-7-[1-(propan-2-yl)piperidin-4-yl]-4H-pyrazino[1,2-a]pyrimidin-4-one], the melting point lay in the range of 229 to 231 °C. Besides, in data set [1], the EC (1.5-fold increase) was 0.1 to 0.3 µM. Further, in data set [2], the “EC1.5x for Smn protein expression” value is “** (an EC1.5× between >1 μM and ≤3 μM is indicated by two stars (**))”; the “maximum fold (Fold) increase” value was “**** (a fold increase between >1.5 and ≤1.65 is indicated by four stars (****))”.
As to `CCN1CC=C(c2ccc3nc(-c4ccc5nc(C)sc5c4)cc(=O)n3c2)CC1` [Compound 396, 7-(1-ethyl-1,2,3,6-tetrahydropyridin-4-yl)-2-(2-methyl-1,3-benzothiazol-6-yl)-4H-pyrido[1,2-a]pyrimidin-4-one], the melting point was in the range of 128 to 130 °C. Also, the EC (1.5-fold increase) in data set [1] lay in the range of 0.1 to 0.3 µM. In data set [2], the “EC1.5x for Smn protein expression” value is “*** (an EC1.5× between >0.3 μM and ≤1 μM is indicated by three stars (***))”; the “maximum fold (Fold) increase” value was “**** (a fold increase between >1.5 and ≤1.65 is indicated by four stars (****))”.
For the compound `Cc1cn2cc(-c3cc(=O)n4cc(N5CCN6CCC[C@H]6C5)ccc4n3)cc(F)c2n1` [Compound 271, 2-(8-fluoro-2-methylimidazo[1,2-a]pyridin-6-yl)-7-[(8aS)-hexahydropyrrolo[1,2-a]pyrazin-2(1H)-yl]-4H-pyrido[1,2-a]pyrimidin-4-one], the melting point is 270 to 274 °C. Moreover, the EC (1.5-fold increase) in data set [1] was below 0.1 µM. In data set [2], the “EC1.5x for Smn protein expression” value is “**** (an EC1.5x≤0.3 μM is indicated by four stars (****))” and the “maximum fold (Fold) increase” value is recorded as “***** (a fold increase >1.65 is indicated by five stars (*****))”.
The compound `CCCc1nc(C)cn2nc(-c3cc(=O)n4cc(N5CCN[C@H](C)C5)ccc4n3)cc12` [Compound 727, 7-[(3R)-3-methylpiperazin-1-yl]-2-(6-methyl-4-propylpyrazolo[1,5-a]pyrazin-2-yl)-4H-pyrido[1,2-a]pyrimidin-4-one] displayed a melting point of 195 to 197 °C. The EC (1.5-fold increase) in data set [1] was below 0.1 µM. For the same compound, in data set [2], the “EC1.5x for Smn protein expression” value is on record as “**** (an EC1.5x≤0.3 μM is indicated by four stars (****))” and the “maximum fold (Fold) increase” value is on record as “***** (a fold increase >1.65 is indicated by five stars (*****))”.

(Values after patent US11753407B2, “Compounds for treating spinal muscular atrophy” (PTC Therapeutics, Inc., priority 2012, dated 2023).)
